Data published in PMC1904258, “X-ray Structures of the Signal Recognition Particle Receptor Reveal Targeting Cycle Intermediates” (PLoS ONE, 2007).

Target: T1, FtsY (T. aquaticus) (Thermus aquaticus, UniProt P83749)
T1 construct: FtsY retaining N-terminal helix N1 (naturally lacks A-domain), NG domains; expressed in E. coli BL21(DE3) from pET21; apo/GMPPNP NCS dimer in crystal
T1 sequence (P83749 1-304): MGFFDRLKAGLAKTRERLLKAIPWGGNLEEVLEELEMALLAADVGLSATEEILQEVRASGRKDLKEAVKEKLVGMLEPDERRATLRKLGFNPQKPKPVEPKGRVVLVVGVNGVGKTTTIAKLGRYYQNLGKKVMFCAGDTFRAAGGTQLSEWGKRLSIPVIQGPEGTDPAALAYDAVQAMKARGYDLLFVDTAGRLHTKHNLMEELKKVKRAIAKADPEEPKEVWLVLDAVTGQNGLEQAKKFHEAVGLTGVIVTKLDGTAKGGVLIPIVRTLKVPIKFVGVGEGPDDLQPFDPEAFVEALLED
Test: X-ray crystal structure of complex ([…] and […] Å)
Format: binding
Conditions: non-hydrolysable GTP analogue; form I (F1, 2.2 Å) grown with MgCl2, no ordered Mg2+; form II (F2, 2.3 Å) without Mg2+; GTPase active site, one monomer of the dimer

Compound: Nc1nc2c(ncn2[C@@H]2O[C@H](COP(=O)(O)OP(=O)(O)NP(=O)(O)O)[C@@H](O)[C@H]2O)c(=O)[nH]1 [GMPPNP]
- X-ray crystal structure of complex (2.2 and 2.3 Å): one monomer in apo-FtsY and the other FtsY monomer bound with GMPPNP
